We go through eight compounds from patent publication US12415832B2, “B-catenin/B-cell Lymphoma 9 protein-protein interaction inhibiting peptidomimetics” (University of South Florida, priority 2019, dated 2025).

The subject of one test is A549 cell. The format is cell-based. The conditions noted are these: 72 h.
Another test addresses T1, β-catenin/BCL9 PPI (Homo sapiens, UniProt P35222).
T1 construct: 40 nM His6-tagged FL-β-catenin
T1 sequence (P35222 1-781): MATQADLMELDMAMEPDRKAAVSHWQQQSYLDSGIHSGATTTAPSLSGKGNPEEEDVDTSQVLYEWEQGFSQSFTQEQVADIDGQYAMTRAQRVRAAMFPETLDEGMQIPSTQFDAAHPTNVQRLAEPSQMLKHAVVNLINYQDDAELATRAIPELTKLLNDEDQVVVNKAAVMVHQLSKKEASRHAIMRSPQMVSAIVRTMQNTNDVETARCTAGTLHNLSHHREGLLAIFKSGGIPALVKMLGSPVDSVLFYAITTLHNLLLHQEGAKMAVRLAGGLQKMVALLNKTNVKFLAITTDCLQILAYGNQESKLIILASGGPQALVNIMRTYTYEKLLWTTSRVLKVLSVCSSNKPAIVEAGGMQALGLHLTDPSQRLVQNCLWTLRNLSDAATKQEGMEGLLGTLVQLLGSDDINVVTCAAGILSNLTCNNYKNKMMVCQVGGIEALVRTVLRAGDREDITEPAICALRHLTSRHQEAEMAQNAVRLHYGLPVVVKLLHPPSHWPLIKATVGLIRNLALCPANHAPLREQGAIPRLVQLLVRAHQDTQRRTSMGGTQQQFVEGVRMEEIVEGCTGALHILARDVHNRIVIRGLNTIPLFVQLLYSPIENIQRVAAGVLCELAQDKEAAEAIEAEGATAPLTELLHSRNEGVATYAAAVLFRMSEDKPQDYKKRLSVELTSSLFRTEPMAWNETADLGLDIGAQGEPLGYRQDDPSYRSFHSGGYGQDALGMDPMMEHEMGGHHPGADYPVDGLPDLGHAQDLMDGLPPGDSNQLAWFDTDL
Description: AlphaScreen competitive inhibition assay of β-catenin/BCL9 PPI. The format is binding. The conditions noted are these: for IC50 / Ki: AlphaScreen, mean ± SD; for IC50: 5 nM biotinylated BCL9, 40 nM His6-tagged FL-β-catenin; for Ki: Ki derived from IC50 by method of Nikolovska-Coleska et al. The method, then:
For the competitive inhibition assays of β-catenin/BCL9 PPI, the negative control (equivalent to 0% inhibition) refers to 5.0 nM biotinylated BCL9, 40 nM His6-tagged FL-β-catenin, and 10 μg/mL of donor and acceptor beads in a final volume of 25 μL of assay buffer, but no tested inhibitor present. The positive control (equivalent to 100% inhibition) refers to 5.0 nM biotinylated BCL9 and 10 μg/mL of donor and acceptor beads in a final volume of 25 μL of assay buffer. For the β-catenin/BCL9 assay, 5 nM biotinylated BCL9 and 40 nM His6-tagged FL-β-catenin were incubated in assay buffer at 4° C. for 30 min. Different concentrations of the tested inhibitor were added and incubated in 20 μL of assay buffer at 4° C. for another 1 h. All of the above assay plates were covered and gently mixed on an orbital shaker. The donor and acceptor beads were then added to the plates to a final concentration of 10 μg/mL in 25 μL of assay buffer. The mixture was incubated for 1 h at 4° C. before detection. The IC50 value was determined by nonlinear least-squares analysis of GraphPad Prism 5.0. The Ki values were derived from the IC50 values using a method reported by Nikolovska-Coleska et al. The assays were conducted under the conditions reported by Nikolovska-Coleska et al.'s equation for determining the Ki values. All of the experiments were performed in triplicate. The results were expressed as mean±standard deviation.
(In general: In Alpha technology, singlet oxygen from a donor bead excites a nearby acceptor bead.)

For another test, the target named is T2, β-catenin (Homo sapiens, UniProt P35222).
T2 sequence (P35222 1-781): T1 sequence (P35222 1-781)
Briefly: FP assay, binding of peptides with β-catenin (Kd). Conditions: for Kd: fluorescence polarization, 50 nM FITC labeled peptide, 1×PBS.

Another test concerns SW480 cell. The format is cell-based. The conditions noted are these: for IC50: 72 h. The method, then:
Colorectal cancer cell lines SW480 were seeded in 96-well plates at 5×10^3 cells/well, maintained overnight at 37° C., and incubated in the presence of inhibitors at various concentrations. Cell viability was monitored after 72 h using a freshly prepared mixture of one-part phenazine methosulfate (PMS, Sigma) solution (0.92 mg/mL) and 19 parts MTs agent (3-(4,5-dimethylthiazol-2-yl)-5-(3-carboxymethoxyphenyl)-2-(4-sulfophenyl)-2H-tetrazolium, inner salt, Promega) solution (2 mg/mL). Cells were incubated in 10 μL of this solution at 37° C. for 3 h, and A490 was measured. The effect of each compound is expressed as the concentration required to reduce A490 by 50% (IC50) relative to vehicle-treated cells. Experiments were performed in triplicate and repeated for three times.

As usually defined, the IC50 is the concentration needed to halve the response being measured. A high value points to weaker potency in that assay. The term Ki denotes a measure of affinity in units of concentration, obtained from inhibition or displacement. For orientation: Kd means the free concentration of one partner at which half of the binding sites on the other are occupied at equilibrium, for simple one-to-one binding. Low values mean a tighter complex, high ones a looser complex. For the compound `CCC(C)[C@@H](CN(CC(=O)N[C@@H](CC(C)C)CN(CC(=O)N[C@@H](CC(C)C)CN(CC(N)=O)S(=O)(=O)Cc1ccccc1)S(=O)(=O)CC(C)C)S(C)(=O)=O)NC(=O)CN(C[C@H](CCCNC(=N)N)NC(=O)CN(C[C@H](C)NC(=O)CN(C[C@@H](NC(=O)CN(C[C@H](CC(C)C)NC(=O)CN(C[C@H](CCCNC(=N)N)NC(=O)CN(C[C@H](CCCNC(=N)N)NC(=O)CN(C[C@H](CCC(=O)O)NC(C)=O)S(=O)(=O)CCN)S(C)(=O)=O)S(C)(=O)=O)S(=O)(=O)CCN)C(C)O)S(=O)(=O)CC(C)C)S(=O)(=O)CCN)S(=O)(=O)CC(C)C` (stereo partly shown) [Peptide 5], the half-inhibitory concentration (IC50) in the test on A549 cell came to 230 ± 27.5 µM; on β-catenin/BCL9 PPI, 2.71 µM; with SW480 cell, 132 ± 18.9 µM. Moreover, the Ki on β-catenin/BCL9 PPI amounted to 2.43 µM. The Kd at β-catenin turned out to be 1.97 µM.

The compound `CC(=O)N[C@@H](CCC(=O)O)CN(CC(=O)N[C@@H](CCCNC(=N)N)CN(CC(=O)N[C@@H](CCCNC(=N)N)CN(CC(=O)N[C@@H](CC(C)C)CN(CC(=O)N[C@H](CN(CC(=O)N[C@@H](CC(C)C)CN(CC(=O)N[C@@H](CCCNC(=N)N)CN(CC(=O)N[C@@H](C)CN(CC(=O)N[C@@H](CC(C)C)CN(CC(=O)N[C@@H](CC(C)C)CN(CC(N)=O)S(=O)(=O)Cc1ccccc1)S(=O)(=O)CC(C)C)S(C)(=O)=O)S(=O)(=O)CC(C)C)S(=O)(=O)CCN)S(=O)(=O)CC(C)C)C(C)O)S(=O)(=O)CCN)S(C)(=O)=O)S(C)(=O)=O)S(=O)(=O)CCN` (stereo partly shown) [Peptide 6] showed a half-inhibitory concentration (IC50) in the test with A549 cell of 150 ± 19.2 µM. In addition, on β-catenin/BCL9 PPI, the “improvement of IC50 compared to the peptide 1” value is roughly 3 fold; the “improvement of Ki compared to the peptide 1” value is roughly 3 fold; the half-inhibitory concentration (IC50) was determined as 0.54 µM; the affinity, expressed as Ki, was 0.46 µM. Further, on β-catenin, the “improvement of Kd compared to the peptide 1” value is roughly 6 fold and the Kd amounted to 0.16 µM. The same compound yielded an IC50 in the test with SW480 cell of 65.4 ± 7.06 µM. The “effect on SW480 cell proliferation, in words” value in the test with SW480 cell (MTS) was “relatively weak activity”.

On to `CCC(C)[C@@H](CN(CC(=O)N[C@@H](CC(C)C)CN(CC(=O)N[C@@H](C)CN(CC(N)=O)S(=O)(=O)Cc1ccccc1)S(=O)(=O)CC(C)C)S(C)(=O)=O)NC(=O)CN(C[C@H](CCCNC(=N)N)NC(=O)CN(C[C@H](CC(C)C)NC(=O)CN(C[C@@H](NC(=O)CN(C[C@H](CC(C)C)NC(=O)CN(C[C@H](CCCNC(=N)N)NC(=O)CN(C[C@H](CCCNC(=N)N)NC(=O)CN(C[C@H](CCC(=O)O)NC(C)=O)S(=O)(=O)CCN)S(C)(=O)=O)S(C)(=O)=O)S(=O)(=O)CCN)C(C)O)S(=O)(=O)CC(C)C)S(=O)(=O)CCN)S(=O)(=O)CC(C)C` (stereo partly shown) [Peptide 7], for which the half-maximal inhibitory concentration (IC50) in the test on A549 cell was 120 ± 13.6 µM; on β-catenin/BCL9 PPI, 1 ± 0.1 µM; in the test on SW480 cell, 46.6 ± 5.57 µM. On β-catenin/BCL9 PPI, the inhibitory constant (Ki) was found to be 0.89 ± 0.08 µM. On β-catenin (Ala substitution), the “decrease in binding affinity relative to 2” value is on record as “about 1.5 fold”. Also, on β-catenin, the dissociation constant (Kd) was found to be 0.7 µM.

As for `CCC(C)[C@@H](CN(CC(=O)N[C@@H](CC(C)C)CN(CC(=O)N[C@@H](CC(C)C)CN(CC(N)=O)S(=O)(=O)Cc1ccccc1)S(=O)(=O)CC(C)C)S(C)(=O)=O)NC(=O)CN(C[C@H](CCCNC(=N)N)NC(=O)CN(C[C@H](CC(C)C)NC(=O)CN(C[C@@H](NC(=O)CN(C[C@H](CC(C)C)NC(=O)CN(C[C@H](CCCNC(=N)N)NC(=O)CN(C[C@H](CCCNC(=N)N)NC(=O)CN(C[C@H](CCC(=O)O)NC(C)=O)S(=O)(=O)CCN)S(C)(=O)=O)S(C)(=O)=O)S(=O)(=O)CCN)C(C)O)S(=O)(=O)CC(C)C)S(=O)(=O)CCN)S(C)(=O)=O` (stereo partly shown) [Peptide 8], at β-catenin/BCL9 PPI, the IC50 stood at 8.01 ± 0.82 µM and the Ki worked out at 7.2 ± 0.72 µM. Further, on β-catenin, the “binding activity, in words” value is “inferior binding activity” and the dissociation constant Kd was determined as 3.89 µM.

In the case of `CC(=O)N[C@@H](CCC(=O)O)CN(CC(=O)N[C@@H](CCCNC(=N)N)CN(CC(=O)N[C@@H](CCCNC(=N)N)CN(CC(=O)N[C@@H](CC(C)C)CN(CC(=O)N[C@H](CN(CC(=O)N[C@@H](CC(C)C)CN(CC(=O)N[C@@H](CCCNC(=N)N)CN(CC(=O)N[C@@H](CCCNC(=N)N)CN(CC(=O)N[C@@H](CC(C)C)CN(CC(=O)N[C@@H](CC(C)C)CN(CC(N)=O)S(=O)(=O)Cc1ccccc1)S(=O)(=O)CC(C)C)S(C)(=O)=O)S(=O)(=O)CC(C)C)S(=O)(=O)CCN)S(=O)(=O)CC(C)C)C(C)O)S(=O)(=O)CCN)S(C)(=O)=O)S(C)(=O)=O)S(=O)(=O)CCN` (stereo partly shown) [Peptide 9], on β-catenin/BCL9 PPI, the IC50 worked out at 12.9 ± 2.15 µM and the affinity, expressed as Ki, was 11.6 ± 1.92 µM. At β-catenin, the “binding activity, in words” value is “inferior binding activity” and the affinity, expressed as Kd, was 5.14 µM.

For the compound `CCC(C)[C@@H](CN(CC(=O)N[C@@H](CC(C)C)CN(CC(=O)N[C@@H](CC(C)C)CN(CC(N)=O)S(=O)(=O)Cc1ccccc1)S(=O)(=O)CC(C)C)S(=O)(=O)CC(C)C)NC(=O)CN(C[C@H](CCCNC(=N)N)NC(=O)CN(C[C@H](CC(C)C)NC(=O)CN(C[C@@H](NC(=O)CN(C[C@H](CC(C)C)NC(=O)CN(C[C@H](CCCNC(=N)N)NC(=O)CN(C[C@H](CCCNC(=N)N)NC(=O)CN(C[C@H](CCC(=O)O)NC(C)=O)S(=O)(=O)CCN)S(C)(=O)=O)S(C)(=O)=O)S(=O)(=O)CCN)C(C)O)S(=O)(=O)CC(C)C)S(=O)(=O)CCN)S(=O)(=O)CC(C)C` (stereo partly shown) [Peptide 10], at β-catenin/BCL9 PPI, the concentration for half-maximal inhibition (IC50) was 4.07 ± 0.59 µM and the Ki is 3.65 ± 0.51 µM. Besides, at β-catenin, the “binding activity, in words” value is “decreased binding activity” and the equilibrium dissociation constant (Kd) came to 2.51 µM.

Take `CCC(C)[C@@H](CN(CC(=O)N[C@@H](C)CN(CC(=O)N[C@@H](CC(C)C)CN(CC(N)=O)S(=O)(=O)Cc1ccccc1)S(=O)(=O)CC(C)C)S(C)(=O)=O)NC(=O)CN(C[C@H](CCCNC(=N)N)NC(=O)CN(C[C@H](CC(C)C)NC(=O)CN(C[C@@H](NC(=O)CN(C[C@H](CC(C)C)NC(=O)CN(C[C@H](CCCNC(=N)N)NC(=O)CN(C[C@H](CCCNC(=N)N)NC(=O)CN(C[C@H](CCC(=O)O)NC(C)=O)S(=O)(=O)CCN)S(C)(=O)=O)S(C)(=O)=O)S(=O)(=O)CCN)C(C)O)S(=O)(=O)CC(C)C)S(=O)(=O)CCN)S(=O)(=O)CC(C)C` (stereo partly shown) [Peptide 11]: on β-catenin/BCL9 PPI, the concentration for half-maximal inhibition (IC50) is 17.4 ± 3.35 µM and the Ki came out at 15.7 ± 3 µM. Also, on β-catenin, the “binding activity, in words” value is “inferior binding activity” and the affinity, expressed as Kd, was 8.26 µM.

Turning to `CCC(C)[C@@H](CN(CC(=O)N[C@@H](CC(C)C)CN(CC(=O)N[C@@H](C)CN(CC(N)=O)S(=O)(=O)Cc1ccccc1)S(=O)(=O)CC(C)C)S(C)(=O)=O)NC(=O)CN(C[C@H](CCCNC(=N)N)NC(=O)CN(C[C@H](C)NC(=O)CN(C[C@@H](NC(=O)CN(C[C@H](CC(C)C)NC(=O)CN(C[C@H](CCCNC(=N)N)NC(=O)CN(C[C@H](C)NC(=O)CN(C[C@H](CCC(=O)O)NC(C)=O)S(C)(=O)=O)S(C)(=O)=O)S(C)(=O)=O)S(=O)(=O)CCN)C(C)O)S(=O)(=O)CC(C)C)S(=O)(=O)CCN)S(=O)(=O)CC(C)C` (stereo partly shown) [Peptide 12], on β-catenin/BCL9 PPI, the “ability to inhibit β-catenin/BCL9 PPI, in words” value is “completely losing their ability to inhibit β-catenin/BCL9 PPI”; the IC50 was greater than 10 µM; the Ki is greater than 10 µM. The same compound gave a dissociation constant (Kd) at β-catenin greater than 10 µM.
